From patent US4880789A, “2'-Substituted-4-deoxy-thiazolo(5,4-c)-rifamycin SV derivatives” (Gruppo Lepetit S.P.A., priority 1985, dated 1989)
Values after ≈ are worked out from the molar mass of the structure shown. Read-outs that look alike come from different tables or passages of the source.

Key:
[1] = tested on: Staphylococcus aureus ATCC 6538; test: MIC, two-fold dilution microtiter, S. aureus ATCC 6538; format: cell-based; settings: Staphylococcus aureus, ATCC6538
[2] = tested on: S. aureus TOUR L 165; test: MIC, two-fold dilution microtiter, S. aureus TOUR L 165; format: cell-based, Staphylococcus aureus
[3] = tested on: S. aureus TOUR L 1282; test: MIC, two-fold dilution microtiter, rifampicin resistant S. aureus TOUR L 1282; format: cell-based; settings: Staphylococcus aureus, TOURL1282, rifampicin resistant strain
[4] = tested on: Streptococcus pyogenes C203; test: MIC, two-fold dilution microtiter, S. pyogenes C203; format: cell-based; settings: Streptococcus pyogenes, Todd-Hewitt broth, 18-24 h, 37° C, read-out: MIC
Experimental: (§1) The minimum inhibitory concentration (MIC) of representative compounds of the invention was determined using two-fold dilution method in microtiter system. The media used were: Todd-Hewitt broth (Difco) for steptococci; Iso-Sensitest broth (Oxoid) for staphylococci and gram-negative bacteria. The final inoculum was about 10^4 cfμ/ml. […] For M. tuberculosis H37 RV the inoculum consisted of 0.5-1% of a 7-9 day culture in Dubos medium. The tests were carried out in Kirschner medium supplemented with 10% horse serum. Observations were made after 7-days incubation at 37° C.

[5] = tested on: S. faecalis ATCC 7080; test: MIC, two-fold dilution microtiter, S. faecalis ATCC 7080; format: cell-based; settings: Enterococcus faecalis, ATCC7080, 18-24 h, 37° C, read-out: MIC
[6] = tested on: S. pneumoniae UC 41; test: MIC, two-fold dilution microtiter, S. pneumoniae UC 41; format: cell-based; settings: Streptococcus pneumoniae, UC41, Todd-Hewitt broth, 18-24 h, 37° C, read-out: MIC
[7] = tested on: Proteus vulgaris XI9H ATCC 881; test: MIC, two-fold dilution microtiter, P. vulgaris; format: cell-based; settings: Proteus vulgaris, ATCC881; P. vulgaris XI9H ATCC 881; Iso-Sensitest broth; 18-24 h, 37° C; read-out: MIC
[8] = tested on: Escherichia coli SKF 12140; test: MIC, two-fold dilution microtiter, E. coli SKF 12140; format: cell-based; settings: Escherichia coli, SKF12140, Iso-Sensitest broth, 18-24 h, 37° C, read-out: MIC
[9] = tested on: Klebsiella pneumoniae ISM; test: MIC, two-fold dilution microtiter, K. pneumoniae ISM; format: cell-based; settings: Klebsiella pneumoniae; K. pneumoniae ISM; Iso-Sensitest broth; 18-24 h, 37° C; read-out: MIC
[10] = tested on: Pseudomonas aeruginosa ATCC 10145; test: MIC, two-fold dilution microtiter, P. aeruginosa ATCC 10145; format: cell-based; settings: Pseudomonas aeruginosa, ATCC10145; P. aeruginosa ATCC 10145; Iso-Sensitest broth; 18-24 h, 37° C; read-out: MIC
[11] = tested on: Mycobacterium tuberculosis H37RV ATCC 9360; test: MIC, M. tuberculosis H37RV, Kirschner medium; format: cell-based; settings: Mycobacterium tuberculosis, 168 h, 10% horse serum, 7 days, 37° C, read-out: MIC
Experimental: as §1

[12] = tested on: S. aureus tour L 165; test: experimental septicemia in mice (S. aureus); format: in vivo; settings: Staphylococcus aureus, once daily for three days, survival on 10th day
Experimental: The antimicrobial activity of the compounds of the invention is also confirmed in "in vivo" tests. The animals (groups of five mice) were infected by intraperitoneal injection of 16-hour broth culture of S. aureus tour L 165. Inocula were adjusted so that untreated animals died of septicemia within 48 hours. Animals were treated once daily for three days starting immediately after infection. On the 10th day the value for the ED50 in mg/kg/day was calculated by the method of […]-KARBER (Finney, D. J., Statistical method in biological assay, page 524. C. Griffin Ltd., London, 1952), on the basis of the percentage of surviving animals at each dose.

[13] = S. aureus ATCC 6538, Iso-Sensitest broth, 18-24 h, 37° C, read-out: MIC
[14] = Staphylococcus aureus, TOURL165, S. aureus TOUR L 165, Iso-Sensitest broth, 18-24 h, 37° C, read-out: MIC
[15] = Staphylococcus aureus, TOURL165, S. aureus TOUR L 165, supplemented with 30% bovine serum, read-out: MIC

Compound | MIC [1, 13] [µg/mL] | MIC [2, 14] [µg/mL] | MIC [2, 15] [µg/mL] | MIC [3] [µg/mL] | MIC [4] [µg/mL] | MIC [5] [µg/mL] | MIC [6] [µg/mL] | MIC [7] [µg/mL] | MIC [8] [µg/mL] | MIC [9] [µg/mL] | MIC [10] [µg/mL] | MIC [11] [µg/mL] | ED50 ([12]; TOURL165, 240 h, sc) [mg/kg] | ED50 ([12]; TOURL165, po, 240 h, os) [mg/kg] | MIC [1] [µg/mL] | MIC ([2]; S. aureus TOUR L 165, supplemented with 30% bovine serum) [µg/mL] | MIC ([2]; Staphylococcus aureus, TOURL165) [µg/mL]
COC1C=COC2(C)Oc3c(C)c(O)c4c(O)c(c5sc(N6CCCCC6)nc5c4c3C2=O)NC(=O)C(C)=CC=CC(C)C(O)C(C)C(O)C(C)C(OC(C)=O)C1C (centres unmarked) [Example 2, 2'-(1"-Piperidinyl) rifamycin P] | 0.003 (≈ 0.00365 µM) | 0.006 (≈ 0.0073 µM) | 0.2 (≈ 0.243 µM) | > 100 | 0.05 (≈ 0.0608 µM) | 1.6 (≈ 1.95 µM) | 0.05 (≈ 0.0608 µM) | 6.25 (≈ 7.6 µM) | 12.5 (≈ 15.2 µM) | 25 (≈ 30.4 µM) | 6.25 (≈ 7.6 µM) | 0.2 (≈ 0.243 µM) | 0.16 | 0.63 | – | – | –
COC1C=COC2(C)Oc3c(C)c(O)c4c(O)c(c5sc(N6CCN(C)CC6)nc5c4c3C2=O)NC(=O)C(C)=CC=CC(C)C(O)C(C)C(O)C(C)C(OC(C)=O)C1C (centres unmarked) [Example 3a, 2'-(4"-Methyl-1"-piperazinyl) rifamycin P] | 0.001 (≈ 0.00119 µM) | 0.004 (≈ 0.00478 µM) | 0.004 (≈ 0.00478 µM) | 32 (≈ 38.2 µM) | 0.032 (≈ 0.0382 µM) | 2 (≈ 2.39 µM) | 0.032 (≈ 0.0382 µM) | 8 (≈ 9.56 µM) | 16 (≈ 19.1 µM) | 32 (≈ 38.2 µM) | 16 (≈ 19.1 µM) | 1 (≈ 1.19 µM) | 0.16 | 0.36 | – | – | –
COC1C=COC2(C)Oc3c(C)c(O)c4c(O)c(c5sc(N6CCN(C)CC6)nc5c4c3C2=O)NC(=O)C(C)=CC=CC(C)C(O)C(C)C(O)C(C)C(O)C1C (centres unmarked) [Example 3b, 25-Desacetyl-2'-(4"-methyl-1-piperazinyl) rifamycin P] | 0.008 (≈ 0.0101 µM) | 0.008 (≈ 0.0101 µM) | 0.016 (≈ 0.0201 µM) | > 128 | 0.063 (≈ 0.0792 µM) | 1 (≈ 1.26 µM) | 0.063 (≈ 0.0792 µM) | 8 (≈ 10.1 µM) | 8 (≈ 10.1 µM) | 16 (≈ 20.1 µM) | 8 (≈ 10.1 µM) | 1 (≈ 1.26 µM) | 10 | 13 | – | – | –
COC1C=COC2(C)Oc3c(C)c(O)c4c(O)c(c5sc(N6CCN(CCO)CC6)nc5c4c3C2=O)NC(=O)C(C)=CC=CC(C)C(O)C(C)C(O)C(C)C(OC(C)=O)C1C (centres unmarked) [Example 3c, 2'-[4"(2'"-hydroxyethyl)-1"-piperazinyl]rifamycin P] | 0.008 (≈ 0.00923 µM) | 0.016 (≈ 0.0185 µM) | 0.032 (≈ 0.0369 µM) | 64 (≈ 73.8 µM) | 0.016 (≈ 0.0185 µM) | 4 (≈ 4.61 µM) | 0.008 (≈ 0.00923 µM) | 16 (≈ 18.5 µM) | 8 (≈ 9.23 µM) | 32 (≈ 36.9 µM) | 128 (≈ 148 µM) | 4 (≈ 4.61 µM) | 3.3 | > 20 | – | – | –
COC1C=COC2(C)Oc3c(C)c(O)c4c(O)c(c5sc(N6CCNCC6)nc5c4c3C2=O)NC(=O)C(C)=CC=CC(C)C(O)C(C)C(O)C(C)C(OC(C)=O)C1C (centres unmarked) [Example 4, 2'-(1"-Piperazinyl) rifamycin P] | – | – | – | > 128 | 0.125 (≈ 0.152 µM) | 2 (≈ 2.43 µM) | 0.064 (≈ 0.0778 µM) | 8 (≈ 9.72 µM) | 8 (≈ 9.72 µM) | 16 (≈ 19.4 µM) | 16 (≈ 19.4 µM) | – | – | – | 0.125 (≈ 0.152 µM) | 0.125 (≈ 0.152 µM) | 0.125 (≈ 0.152 µM)
CCN(CC)c1nc2c(s1)c1c(O)c3c(O)c(C)c4c(c32)C(=O)C(C)(OC=CC(OC)C(C)C(OC(C)=O)C(C)C(O)C(C)C(O)C(C)C=CC=C(C)C(=O)N1)O4 (centres unmarked) [Example 5, 2'-(N,N-diethylamino) rifamycin P] | 0.032 (≈ 0.0395 µM) | 0.064 (≈ 0.079 µM) | 0.5 (≈ 0.617 µM) | > 128 | 0.064 (≈ 0.079 µM) | 1 (≈ 1.23 µM) | 0.032 (≈ 0.0395 µM) | 32 (≈ 39.5 µM) | 32 (≈ 39.5 µM) | 64 (≈ 79 µM) | – | 0.5 (≈ 0.617 µM) | 0.21 | 0.82 | – | – | –
